Reference: publication PMC11721736, “Synthesis of Novel Benzothiazole–Profen Hybrid Amides as Potential NSAID Candidates” (Molecules, 2024)
Several values for one entry are separate records, joined by “and”; a condition that tells them apart may be missing. Equal values may be shown once.

Key:
[1] = Hydrogen peroxide scavenging activity (HPSA); details: 10 min at 37 °C, absorbance at 230 nm
Protocol: The Manolov et al. approach was used to evaluate the capacity to scavenge hydrogen peroxide. A 43 mM solution of H2O2 was prepared in a potassium phosphate buffer solution (0.2 M, pH 7.4). The analysis of the samples was carried out as follows: in test tubes, 0.6 mL H2O2 (43 mM), 1 mL sample/standard of different concentrations (20–1000 µg/mL), and 2.4 mL potassium phosphate buffer solution were mixed. The mixture was stirred and incubated in the dark for 10 min at 37 °C. Absorbance was measured at 230 nm with a spectrophotometer (Camspec M508, Leeds, UK) against a blank solution containing phosphate buffer and H2O2 without the sample. Ascorbic acid and quercetin were used as standards. The percentage HPSA of the samples was evaluated by comparing them to a blank sample and was calculated using the following formula:(1) I,%(HPSA)=Ablank−(ATS−ACS)/Ablank×100 where Ablank is the absorbance of the blank sample, ACS is the absorbance of the control sample, and ATS is the absorbance of the test sample.

[2] = Hydroxyl radical scavenging activity (HRSA); details: 1 h at 37 °C, absorbance at 510 nm
Protocol: Hydroxyl radical scavenging activities of different fractions of 2-ABT-profenes were determined according to the method described by Guo [47]. The scavenging of hydroxyl radicals was performed as follows: 0.3 mL sodium salicylate (20 mM), 1 mL FeSO4 (1.5 mM), 1 mL sample/standard of different concentrations (20–1000 µg/mL), and 0.7 mL H2O2 (6 mM) were mixed immediately. Then, the reaction tubes were put in a 37 °C water bath for 1 h, and the absorbance of the mixture was recorded at 510 nm against a blank. We used standards with proven high antioxidant activity such as ascorbic acid and quercetin. The hydroxyl radical scavenging ability was calculated as follows:(2) I,%(HRSA)=Ablank−Asample/Ablank×100 where Ablank is the absorbance without samples and Asample is the absorbance in the presence of the samples.

human albumin = target: T1, human albumin (Homo sapiens, UniProt P02768); assay: Inhibition of albumin denaturation (IAD), in vitro anti-inflammatory activity; type: biochemical; details: human albumin 1%, heated at 70 °C for 15 min, turbidity at 660 nm; read-out: IAD IC50 ± SD (converted)
T1 construct: purchased BB-NCIPD Ltd., Sofia, Bulgaria Human albumin 20%—BB, 200 g/L
Protocol: In vitro analysis of anti-inflammatory activity was assessed as the inhibition of albumin denaturation (IAD). The analysis was performed according to Manolov’s method, with minor modifications. The experiment was performed with human albumin. The solution of albumin (1%) was prepared in distilled water (pH 7.4). Test samples/standards were first dissolved in 1.2 mL of DMSO and then supplemented with 1% Tween 80 in PBS so that the final concentration of the stock solution was 1000 μg/mL. Then, a series of working solutions with different concentrations (20–500 μg/mL) in 1% Tween 80/PBS were prepared. The reaction mixture contained a 2 mL test sample/standard of different concentrations and 1 mL albumin (1%). The mixture was incubated at 37 °C for 15 min and then heated at 70 °C for 15 min in a water bath. After cooling, the turbidity was measured at 660 nm with a spectrophotometer (Camspec M508, Leeds, UK). Ibuprofen was used as a standard. The experiment was performed three times. The percentage inhibition of albumin denaturation (IAD) was calculated against the control. The control sample consisted of the same concentration of albumin dissolved in distilled water. (3) %IAD=Ablank−Asample/Ablank×100

[3] = Lipophilicity as RM values by reversed-phase thin-layer chromatography; type: physicochemical; details: reversed-phase TLC, dimensionless
From the text: Lipophilicity can be evaluated through calculations or experimental methods. In our study, we measured the lipophilicity of the synthesized 2-ABT derivatives using a practical method: reversed-phase thin-layer chromatography, as described by Hadjipavlou-Litina. The lipophilicity increased in the following order based on the experimentally obtained RM values: 3a (1.629) < […] < 3e (1.736) < 3b (1.941) < 3c (2.02). Compound 3c is the most lipophilic experimentally, followed by 3b, while 3a is the least lipophilic.
The determination of lipophilicity of 2-ABT derivatives was estimated according to the method reported by Pontiki and Hadjipavlou-Litina.

T1 sequence (P02768 25-609): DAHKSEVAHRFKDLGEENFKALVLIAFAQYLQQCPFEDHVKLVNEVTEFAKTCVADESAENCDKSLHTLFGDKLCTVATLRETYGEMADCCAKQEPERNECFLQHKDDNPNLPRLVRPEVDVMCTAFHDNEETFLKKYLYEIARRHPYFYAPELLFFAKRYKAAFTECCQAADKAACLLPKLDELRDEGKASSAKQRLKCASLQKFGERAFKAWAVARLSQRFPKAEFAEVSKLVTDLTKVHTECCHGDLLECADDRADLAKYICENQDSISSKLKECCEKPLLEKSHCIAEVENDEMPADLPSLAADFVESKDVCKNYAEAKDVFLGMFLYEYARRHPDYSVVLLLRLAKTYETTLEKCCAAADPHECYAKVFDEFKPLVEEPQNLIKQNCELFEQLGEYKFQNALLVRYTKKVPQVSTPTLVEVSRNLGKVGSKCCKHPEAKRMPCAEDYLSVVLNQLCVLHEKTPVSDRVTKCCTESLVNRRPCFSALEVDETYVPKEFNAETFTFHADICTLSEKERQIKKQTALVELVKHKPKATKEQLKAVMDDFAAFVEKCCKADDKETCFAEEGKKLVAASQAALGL

HPSA IC50 ± SD [1] | HRSA IC50 ± SD [2] | IC50 (human albumin) | RM ± SD [3] | SMILES
24.84 ± 0.35 mg/L | 129.84 ± 4.52 mg/L | – | – | O=C1O[C@H]([C@@H](O)CO)C(O)=C1O [AA, ascorbic acid, reference compound]
65.51 ± 0.30 mg/L | 375.06 ± 14.62 mg/L | 473 µM | 1.629 ± 0.009 and 1.629 | CC(C)Cc1ccc(C(C)C(=O)Nc2nc3ccccc3s2)cc1 (stereo not shown) [Compound 3a, N-(benzo[d]thiazol-2-yl)-2-(4-isobutylphenyl)propanamide]
60.24 mg/L | 285.13 ± 27.44 mg/L | 141 µM | 1.941 ± 0.010 and 1.941 | CC(C(=O)Nc1nc2ccccc2s1)c1cccc(C(=O)c2ccccc2)c1 (stereo not shown) [Compound 3b, N-(benzo[d]thiazol-2-yl)-2-(3-benzoylphenyl)propanamide]
67.71 mg/L | 317.91 ± 11.61 mg/L | 178 µM | 2.020 ± 0.046 and 2.02 | COc1ccc2cc(C(C)C(=O)Nc3nc4ccccc4s3)ccc2c1 (stereo not shown) [Compound 3c, N-(benzo[d]thiazol-2-yl)-2-(6-methoxynaphthalen-2-yl)propanamide]
67.22 ± 0.45 mg/L | 551.44 ± 28.48 mg/L | 160 µM | 1.755 ± 0.014 and 1.755 | CC(C(=O)Nc1nc2ccccc2s1)c1ccc2c(c1)[nH]c1ccc(Cl)cc12 (stereo not shown) [Compound 3d, N-(benzo[d]thiazol-2-yl)-2-(6-chloro-9H-carbazol-2-yl)propanamide]
63.05 ± 0.28 mg/L | 429.59 ± 21.49 mg/L | 157 µM | 1.736 ± 0.015 and 1.736 | CC(C(=O)Nc1nc2ccccc2s1)c1ccc(-c2ccccc2)c(F)c1 (stereo not shown) [Compound 3e, N-(benzo[d]thiazol-2-yl)-2-(2-fluoro-[1,1′-biphenyl]-4-yl)propanamide]
– | – | – | 1.110 ± 0.010 | CC(C)Cc1ccc(C(C)C(=O)O)cc1 (stereo not shown) [Ibu, ibuprofen, reference compound]
69.25 ± 1.82 mg/L | 149.18 ± 9.27 mg/L | – | – | O=c1c(O)c(-c2ccc(O)c(O)c2)oc2cc(O)cc(O)c12 [Qrc, quercetin, reference compound]
